Results on one compound are retold here after patent US20230181746A1, “BENZOYLHYDRAZIDE-DERIVED HDAC DEGRADERS AS THERAPEUTICS FOR TREATING CANCER AND OTHER HUMAN DISEASES” (University of Florida Research Foundation, Inc., priority 2020, published 2023).

Usually IC50 stands for the concentration at which inhibition is half-maximal. Read a low IC50 as greater potency.

Some results are limits rather than exact numbers.

Test [1] has as its target HDAC3 (Homo sapiens, UniProt O15379). The test can be described thus: HDAC3 degradation in breast cancer cell lines, Western blot. More on the design: endogenous in cells; host or cells: MDA-MB-468, T47D, MCF7. The conditions noted are these: MDA-MB-468 cells. It counts as cell-based. The source says: Data are presented as representative figures of two independent experiments.
Cells were lysed for WB with antibodies against the indicated proteins. Antibodies against acetylated histones at specific sites (H3K27 and H4K5) and acetyl-lysine were used to assess levels of histone acetylation.
Cells were lysed for WB. […] The indicated BC cell lines were exposed to DMSO, XZ9002, or XZ9002-NC at the indicated concentrations. Colonies were fixed and stained.
Cell lines were obtained from ATCC and subsequently authenticated. Cells were cultured with DMEM supplemented with 10% bovine calf serum, penicillin to 10 units/mL, and streptomycin to 10 μg/mL. For viability assays, 5,000 cells/well were seeded in 96-well plates. […] For colony formation assay, cells (˜1,000 cells/well) were seeded in a 24-well plate in quadruplicates. […] Medium was replaced with freshly prepared medium containing DMSO, XZ9002 or XZ9002-NC every five days until visible colonies appeared, typically in 15 to 20 days after initial cell seeding. Cells were fixed with 4% paraformaldehyde for 15 min and stained with 2% methylene blue in 20% ethanol for 30 min to 1 h. The cells were washed twice with distilled water and dried in air. For western blotting, cell cultures were exposed to compounds as indicated in relevant figures. Medium was removed from culture plate, and 1 x passive lysis buffer was then added, the plates were frozen at −80° C. overnight and thawed at room temperature. The total cell lysates were mixed with a one fifth volume of 6x SDS sample buffer, heated at 95° C. for 5 min and cooled on ice. The lysates were cleared by centrifugation and then subjected to SDS-PAGE and western blotting essentially as described.
In general terms: A western blot detects proteins with antibodies after separation by electrophoresis.

The test system of test [2] is histone acetylation (H3K27ac, H4K5ac, acetyl-lysine). The test can be described thus: Histone acetylation in cells, Western blot. The conditions noted are these: MDA-MB-468 cells; only moderate effects compared to 15 and CRBN-based PROTACs. Format: cell-based. How it is done:
The culture of the triple-negative breast cancer cell line MDA-MB-468 and the ER+ breast cancer cell line T47D was exposed to vehicle control (DMSO) and the indicated compounds at specified concentrations for 14 h. Cells were lysed for WB with antibodies against the indicated proteins. Antibodies against acetylated histones at specific sites (H3K27 and H4K5) and acetyl-lysine were used to assess levels of histone acetylation. Levels of HDAC3 were normalized against that of tubulin and % of HDAC3 protein levels in cells treated with the indicated compounds relative to that in DMSO control is shown.
Cell lines were obtained from ATCC and subsequently authenticated. Cells were cultured with DMEM supplemented with 10% bovine calf serum, penicillin to 10 units/mL, and streptomycin to 10 μg/mL. For viability assays, 5,000 cells/well were seeded in 96-well plates. Compounds at a specified concentration or DMSO were added 24 h later. Viability assays were performed 72 h after compound addition using the CellTiter-Glo reagents (Promega). For colony formation assay, cells (˜1,000 cells/well) were seeded in a 24-well plate in quadruplicates. At 24 h after seeding, DMSO, XZ9002, or XZ9002-NC were added at a specified concentration. […]

Test [3] has as its target T1, HDAC3 (in complex with the deacetylase activation domain of the human NCOR2 (amino acids 395-498)) (Homo sapiens, UniProt O15379).
T1 construct: purchased BPS Bioscience 50003
The test can be described thus: In vitro HDAC activity assay (HDAC-Glo I/II), HDAC3. Format: biochemical. The conditions noted are these: HDAC-Glo I/II; average of three independent assays ± standard deviation. The method, then:
(§1) Purified HDAC1, HDAC2, and HDAC3 (in complex with the deacetylase activation domain of the human NCOR2 (amino acids 395-498)) were obtained from Enzo Life Sciences (HDAC1, catalog # BML-SE456-0050) and BPS Bioscience (HDAC2, catalog #50002 and HDAC3, catalog #50003), respectively. The enzyme activities were tested using the HDAC-Glo I/II reagents (Promega) according to a protocol provided by the manufacturer.

Test [4] has as its target HDAC1 (Homo sapiens, UniProt Q13547). The test can be described thus: In vitro HDAC activity assay (HDAC-Glo I/II), HDAC1. Set-up: purchased Enzo Life Sciences BML-SE456-0050. Format: biochemical. The conditions noted are these: average of three independent assays ± standard deviation. The method, then: as §1
Test [5] has as its system MDA-MB-468 cells. As to the kind of experiment: Cell viability assay (CellTiter-Glo). Format: cell-based. The settings on record: MDA-MB-468, 72 h; similar trends in MDA-MB-231 and T47D cells. The method, then: MDA-MB-468, MDA-MB-231, and T47D cells were treated with the indicated compounds at different concentrations for 72 h. Cell viability was assessed with CellTiter-Glo® reagents.
Cell lines were obtained from ATCC and subsequently authenticated. Cells were cultured with DMEM supplemented with 10% bovine calf serum, penicillin to 10 units/mL, and streptomycin to 10 μg/mL. For viability assays, 5,000 cells/well were seeded in 96-well plates. Compounds at a specified concentration or DMSO were added 24 h later. Viability assays were performed 72 h after compound addition using the CellTiter-Glo reagents (Promega). For colony formation assay, cells (˜1,000 cells/well) were seeded in a 24-well plate in quadruplicates. At 24 h after seeding, DMSO, XZ9002, or XZ9002-NC were added at a specified concentration. Medium was replaced with freshly prepared medium containing DMSO, XZ9002 or XZ9002-NC every five days until visible colonies appeared, typically in 15 to 20 days after initial cell seeding. Cells were fixed with 4% paraformaldehyde for 15 min and stained with 2% methylene blue in 20% ethanol for 30 min to 1 h. The cells were washed twice with distilled water and dried in air. For western blotting, cell cultures were exposed to compounds as indicated in relevant figures. Medium was removed from culture plate, and 1 x passive lysis buffer was then added, the plates were frozen at −80° C. overnight and thawed at room temperature. The total cell lysates were mixed with a one fifth volume of 6x SDS sample buffer, heated at 95° C. for 5 min and cooled on ice. The lysates were cleared by centrifugation and then subjected to SDS-PAGE and western blotting essentially as described. […]
In general terms: In ATP-based viability assays light output follows the ATP content of the culture.

Chain of HDAC3 (O15379 whole entry): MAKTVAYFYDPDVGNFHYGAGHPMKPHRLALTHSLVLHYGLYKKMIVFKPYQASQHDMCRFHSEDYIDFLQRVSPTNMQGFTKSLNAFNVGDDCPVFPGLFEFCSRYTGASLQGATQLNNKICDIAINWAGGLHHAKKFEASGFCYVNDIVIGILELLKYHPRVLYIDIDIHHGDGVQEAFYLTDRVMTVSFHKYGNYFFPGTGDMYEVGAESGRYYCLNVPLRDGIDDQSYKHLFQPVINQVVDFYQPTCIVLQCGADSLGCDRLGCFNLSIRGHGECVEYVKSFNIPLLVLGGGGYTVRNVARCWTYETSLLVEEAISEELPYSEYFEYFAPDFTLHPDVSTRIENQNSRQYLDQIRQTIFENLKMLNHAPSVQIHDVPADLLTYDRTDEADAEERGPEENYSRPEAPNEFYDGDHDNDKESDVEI
Chain of HDAC3 (Q9Y618 395-498 partner limits assumed): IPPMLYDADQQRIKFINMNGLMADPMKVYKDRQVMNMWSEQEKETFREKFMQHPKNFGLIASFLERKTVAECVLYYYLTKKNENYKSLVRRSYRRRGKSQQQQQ
Chain of HDAC1 (Q13547 whole entry): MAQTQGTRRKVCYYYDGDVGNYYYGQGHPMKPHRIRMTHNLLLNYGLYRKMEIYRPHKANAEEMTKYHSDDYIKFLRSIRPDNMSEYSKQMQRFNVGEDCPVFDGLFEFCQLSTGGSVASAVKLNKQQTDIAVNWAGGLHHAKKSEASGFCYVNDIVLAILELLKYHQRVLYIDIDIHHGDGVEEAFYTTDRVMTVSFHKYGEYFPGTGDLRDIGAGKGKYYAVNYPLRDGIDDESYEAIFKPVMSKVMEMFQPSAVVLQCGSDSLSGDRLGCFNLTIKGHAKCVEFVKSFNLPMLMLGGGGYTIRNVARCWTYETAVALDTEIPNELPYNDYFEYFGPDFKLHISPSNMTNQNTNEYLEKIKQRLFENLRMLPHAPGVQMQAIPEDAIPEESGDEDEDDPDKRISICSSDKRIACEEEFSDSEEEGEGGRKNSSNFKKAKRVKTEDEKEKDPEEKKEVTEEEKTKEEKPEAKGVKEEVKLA
T1 sequence (O15379 whole entry, the tested form may be a part): as the sequence (O15379 whole entry) above
T1 sequence (Q9Y618 395-498 partner limits assumed): as the sequence (Q9Y618 395-498 partner limits assumed) above

As for `CCCNNC(=O)c1ccc(-c2ccc(NC(=O)CCCCCCC(=O)N[C@H](C(=O)N3C[C@H](O)C[C@H]3C(=O)N[C@@H](C)c3ccc(-c4scnc4C)cc3)C(C)(C)C)cc2)cc1` [XZ9002, N^1—((S)-1-((2S,4R)-4-hydroxy-2-(((S)-1-(4-(4-methylthiazol-5-yl)phenyl)ethyl)carbamoyl)pyrrolidin-1-yl)-3,3-dimethyl-1-oxobutan-2-yl)-N^5-(4′-(2-propylhydrazine-1-carbonyl)-[1,1′-biphenyl]-4-yl)octanediamide], the “start of HDAC3 degradation” value in test [1] (125 nM) was ≤ 2 h. Also, the “time for HDAC3 to rebound to the steady level after washout” value in test [1] (125 nM for 14 h, then drug-free medium) is listed as “more than 12 h”. In test [1] (125 nM, 8 h), this compound gave an HDAC3 degraded of 70%. Also, in test [1] (14 h treatment, read-out: HDAC3 DC50 (the concentration for 50% protein degradation)), the DC50 amounted to 0.042 µM. Moreover, in test [1] (MG132 1 μM for 1 h, XZ9002 125 nM), the “HDAC3 degradation after pre-incubation with proteasome inhibitor MG132” value is “blocked”. Also, in test [1] (VH032 10 μM for 1 h, XZ9002 125 nM), the “HDAC3 degradation after pre-incubation with VHL ligand VH032” value is listed as “blocked”. In addition, the histone acetylation entry in test [2] is recorded as “dose-dependently increased”. Further, the IC50 came to 0.35 ± 0.07 µM in test [3] and 0.65 ± 0.07 µM in test [4]. Besides, the “antiproliferative activity (in words)” value in test [5] was “more potent in killing cancer cells”.
